Measured values as given in patent US20110230472A1, “RING-FUSED AZOLE DERIVATIVE HAVING PI3K-INHIBITING ACTIVITY” (Shionogi & Co., Ltd., priority 2008, published 2011).

Legend:
[1] = target: T1, human ether-a-go-go related gene (hERG) channel (Homo sapiens, UniProt Q12809); experiment: hERG test, whole-cell patch-clamp; type: cell-based; conditions: HEK293 cell expressing hERG; applied for 10 minutes; concentration not given
T1 construct: expressed in transfected cells; host or cells: HEK293
Source text: For the purpose of risk evaluation of QT interval extension of electrocardiogram, the activity on delayed rectification K^+ current (IKr), which plays an important role in a cardiac ventricle repolarization process, was examined using the HEK293 cell that was made to express human ether-a-go-go related gene (hERG) channel.
Using an automatic patch-clamp system (PatchXpress 7000A, Axon Instruments Inc.), by a whole-cell patch-clamp method, after the cell was maintained at a membrane potential of −80 mV, IKr induced upon applying depolarizing stimulation of +50 mV for 2 seconds and further applying repolarizing stimulation of −50 mV for 2 seconds was recorded. After generated electric current became stable, a test substance dissolved at an intended concentration in extracellular fluid (137 mmol/L NaCl, 4 mmol/L KCl, 1.8 mmol/L CaCl2.2H2O, 1 mmol/L MgCl2.6H2O, 10 mmol/L glucose, 10 mmol/L HEPES (4-(2-hydroxyethyl)-1-piperazineethanesulfonic acid), pH=7.4) was applied to the cell for 10 minutes under room temperature condition. From the obtained IKr, the absolute value of the maximum tail current was measured using analysis software (DataXpress ver. 1, Molecular Devices Corporation) and the value of the electric current in a maintained membrane potential as baseline. Moreover, an inhibition ratio for the maximum tail current prior to the application of the test substance was calculated and then compared with a group of media-application (0.1% dimethylsulfoxide solution) to evaluate influence of the test substance on IKr.

CYP2C9 = target: T2, CYP2C9 (Homo sapiens, UniProt P11712); experiment: CYP inhibition test, pooled human liver microsome, CYP2C9; type: in vitro ADME; conditions: methyl-hydroxylation of tolbutamide
T2 construct: enzyme: pooled human liver microsome 0.2 mg protein/mL; from tissue; host or cells: pooled human liver microsome
T2 sequence (P11712 whole entry): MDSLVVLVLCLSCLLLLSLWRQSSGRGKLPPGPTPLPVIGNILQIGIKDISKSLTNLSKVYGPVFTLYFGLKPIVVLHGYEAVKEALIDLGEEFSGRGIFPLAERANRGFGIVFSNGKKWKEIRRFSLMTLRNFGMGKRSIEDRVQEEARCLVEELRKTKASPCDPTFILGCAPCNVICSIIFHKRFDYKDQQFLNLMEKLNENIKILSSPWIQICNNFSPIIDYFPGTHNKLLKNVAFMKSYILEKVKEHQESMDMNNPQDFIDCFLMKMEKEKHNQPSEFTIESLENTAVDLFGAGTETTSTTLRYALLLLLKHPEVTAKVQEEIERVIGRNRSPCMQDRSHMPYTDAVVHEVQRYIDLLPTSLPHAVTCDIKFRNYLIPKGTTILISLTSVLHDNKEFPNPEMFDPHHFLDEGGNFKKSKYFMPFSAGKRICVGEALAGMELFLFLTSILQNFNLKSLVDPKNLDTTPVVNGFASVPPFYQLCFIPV
Source text: (§1) O-de-ethylation of 7-ethoxyresorufin (CYP1A2), methyl-hydroxylation of tolbutamide (CYP2C9), 4′-hydroxylation of mephenyloin (CYP2C19), O-demethylation of dextromethorphan (CYP2D6), and hydroxylation of terfenadine (CYP3A4), which are typical substrate for metabolic reactions of human main CYP5 molecular species (CYP1A2, 2C9, 2C19, 2D6, and 3A4), were adopted as indexes.
(§2) The reaction conditions are as follows: substrate: 0.5 μmol/L of ethoxyresorufin (CYP1A2), 100 μmol/L of tolbutamide (CYP2C9), […] of S-mephenyloin (CYP2C19), 5 μmol/L of dextromethorphan (CYP2D6), and 1 μmol/L of terfenadine (CYP3A4); reaction time; 15 minutes; reaction temperature: 37° C.; enzyme: pooled human liver microsome 0.2 mg protein/mL; test drug concentration: 1, 5, 10, and 20 μmol/L (4 points).
(§3) In a 96-well plate, as a reaction solution, five kinds of substrates, a human liver microsome, and a test drug were added to 50 mmol/L Hepes buffer solution in the aforementioned ratio. A coenzyme NADPH was added to start a metabolic reaction, which is an index. After reacting at 37° C. for 15 minutes, a solution of methanol/acetonitrile (1/1 (v/v)) was added to quench the reaction. After centrifugation at 3000 rpm for 15 minutes, resorufin (CYP1A2 metabolite) in the supernatant was quantitated with a fluorescence multilabel counter, and hydroxylated tolbutamide (CYP2C9 metabolite), 4′-hydroxylated mephenyloin (CYP2C19 metabolite), […], terfenadine in alcohol form (CYP3A4 metabolite) were quantitated with LC/MS/MS.
(§4) The case wherein only DMSO (a solvent which dissolved a drug) was added to a reaction system was defined as a control (100%). When a test drug solution was added, the remaining activity (%) at each concentration was calculated, and then IC50 was calculated with a concentration and an inhibition ratio by an inverse estimation using a logistic model.

CYP2D6 = target: T3, CYP2D6 (Homo sapiens, UniProt P10635); experiment: CYP inhibition test, pooled human liver microsome, CYP2D6; type: in vitro ADME; conditions: O-demethylation of dextromethorphan
T3 construct: enzyme: pooled human liver microsome 0.2 mg protein/mL; from tissue; host or cells: pooled human liver microsome
T3 sequence (P10635 whole entry): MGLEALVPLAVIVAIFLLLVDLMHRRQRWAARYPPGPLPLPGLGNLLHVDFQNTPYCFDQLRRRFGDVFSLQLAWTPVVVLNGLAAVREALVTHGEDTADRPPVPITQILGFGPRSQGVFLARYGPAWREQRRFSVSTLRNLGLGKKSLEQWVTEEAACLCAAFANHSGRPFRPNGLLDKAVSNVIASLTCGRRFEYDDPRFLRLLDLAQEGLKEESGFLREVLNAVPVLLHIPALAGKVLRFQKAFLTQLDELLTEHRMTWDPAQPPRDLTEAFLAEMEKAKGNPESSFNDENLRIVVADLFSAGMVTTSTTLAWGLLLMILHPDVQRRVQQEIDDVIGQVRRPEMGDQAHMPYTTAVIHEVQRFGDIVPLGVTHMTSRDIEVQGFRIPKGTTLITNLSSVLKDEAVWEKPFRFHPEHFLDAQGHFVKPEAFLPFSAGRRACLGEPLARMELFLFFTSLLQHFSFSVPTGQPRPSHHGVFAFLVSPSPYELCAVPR
Source text: as §1, §2, §3, §4

CYP3A4 = target: T4, CYP3A4 (Homo sapiens, UniProt P08684); experiment: CYP inhibition test, pooled human liver microsome, CYP3A4; type: in vitro ADME; conditions: hydroxylation of terfenadine
T4 construct: enzyme: pooled human liver microsome 0.2 mg protein/mL; from tissue; host or cells: pooled human liver microsome
T4 sequence (P08684 whole entry): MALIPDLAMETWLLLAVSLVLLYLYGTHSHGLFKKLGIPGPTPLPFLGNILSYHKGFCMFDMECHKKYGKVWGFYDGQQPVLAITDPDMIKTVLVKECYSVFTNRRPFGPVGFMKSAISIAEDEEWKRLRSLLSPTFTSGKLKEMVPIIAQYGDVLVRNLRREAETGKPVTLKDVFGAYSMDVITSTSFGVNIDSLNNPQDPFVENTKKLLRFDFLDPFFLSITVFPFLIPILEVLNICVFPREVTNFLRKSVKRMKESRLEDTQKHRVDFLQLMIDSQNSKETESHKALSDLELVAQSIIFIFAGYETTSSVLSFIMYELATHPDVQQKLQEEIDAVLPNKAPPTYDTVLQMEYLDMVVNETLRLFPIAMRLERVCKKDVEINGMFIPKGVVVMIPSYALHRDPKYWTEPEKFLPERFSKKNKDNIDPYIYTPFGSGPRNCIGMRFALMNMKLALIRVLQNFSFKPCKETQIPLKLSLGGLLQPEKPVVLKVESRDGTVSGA
Source text: as §1, §2, §3, §4

Metabolic stability test = type: in vitro ADME; conditions: human liver microsome 0.5 mg protein/mL, 1 mmol/L NADPH, 37° C.
Method in brief: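 Pooled human liver microsomes (0.5 mg protein/mL) incubated with compound and 1 mmol/L NADPH at 37° C. in pH 7.4 Tris buffer for 0 or 30 min. Parent quantified by LC/MS/MS after methanol/acetonitrile quench; value is % remaining at 30 min versus 0 min.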

PI-3 kinase γ = PI-3 kinase γ (Homo sapiens, UniProt P48736); experiment: PI3Kγ inhibitory activity, PI3-kinase HTRF assay (inhibition ratio); type: biochemical; conditions: 0.5 h; for inhibition at 50 µM: compound at 50 μM
Sequence of PI-3 kinase γ (P48736 whole entry): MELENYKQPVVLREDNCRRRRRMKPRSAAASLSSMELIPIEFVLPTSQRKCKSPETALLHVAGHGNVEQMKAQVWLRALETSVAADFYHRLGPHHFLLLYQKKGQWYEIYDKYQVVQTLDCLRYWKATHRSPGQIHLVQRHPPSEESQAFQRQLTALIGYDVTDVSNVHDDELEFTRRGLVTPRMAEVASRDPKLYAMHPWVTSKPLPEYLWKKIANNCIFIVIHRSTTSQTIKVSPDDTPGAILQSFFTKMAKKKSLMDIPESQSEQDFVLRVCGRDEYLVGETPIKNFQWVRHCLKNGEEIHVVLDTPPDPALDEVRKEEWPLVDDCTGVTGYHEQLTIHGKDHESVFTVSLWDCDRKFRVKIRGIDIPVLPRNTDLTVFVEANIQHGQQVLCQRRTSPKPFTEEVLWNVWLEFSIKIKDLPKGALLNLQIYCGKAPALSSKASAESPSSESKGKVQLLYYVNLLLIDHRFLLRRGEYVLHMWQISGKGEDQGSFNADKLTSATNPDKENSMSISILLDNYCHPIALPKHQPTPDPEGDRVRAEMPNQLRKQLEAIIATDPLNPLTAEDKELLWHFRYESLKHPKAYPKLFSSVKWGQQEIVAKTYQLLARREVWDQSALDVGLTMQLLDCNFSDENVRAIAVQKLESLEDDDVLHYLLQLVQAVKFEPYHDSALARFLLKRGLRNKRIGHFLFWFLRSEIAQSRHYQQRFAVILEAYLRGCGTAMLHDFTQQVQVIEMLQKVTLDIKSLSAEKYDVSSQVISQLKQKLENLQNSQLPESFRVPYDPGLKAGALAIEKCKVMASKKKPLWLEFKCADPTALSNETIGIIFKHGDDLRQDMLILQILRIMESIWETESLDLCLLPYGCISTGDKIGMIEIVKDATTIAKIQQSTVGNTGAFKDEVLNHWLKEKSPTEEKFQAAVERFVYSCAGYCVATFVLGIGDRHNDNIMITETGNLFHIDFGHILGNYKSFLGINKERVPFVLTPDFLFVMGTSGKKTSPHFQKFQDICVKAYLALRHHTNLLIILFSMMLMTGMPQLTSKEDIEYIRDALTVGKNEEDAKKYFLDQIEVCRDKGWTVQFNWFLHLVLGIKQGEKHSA
Method in brief: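 PI3Kγ preincubated 10 min with compound and PIP2 substrate (MgCl2, DTT), then ATP added for 30 min at room temperature. PIP3 detected by HTRF (665/620 nm ratio) after 18 h. Inhibition ratio at 50 or 10 μmol/L, normalised to no-compound and no-enzyme controls.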
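Wherever percentage of the test compound remained after reacting for 30 minutes is given: 100% equals the compound amount at 0 min reaction.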

T1 sequence (Q12809 whole entry): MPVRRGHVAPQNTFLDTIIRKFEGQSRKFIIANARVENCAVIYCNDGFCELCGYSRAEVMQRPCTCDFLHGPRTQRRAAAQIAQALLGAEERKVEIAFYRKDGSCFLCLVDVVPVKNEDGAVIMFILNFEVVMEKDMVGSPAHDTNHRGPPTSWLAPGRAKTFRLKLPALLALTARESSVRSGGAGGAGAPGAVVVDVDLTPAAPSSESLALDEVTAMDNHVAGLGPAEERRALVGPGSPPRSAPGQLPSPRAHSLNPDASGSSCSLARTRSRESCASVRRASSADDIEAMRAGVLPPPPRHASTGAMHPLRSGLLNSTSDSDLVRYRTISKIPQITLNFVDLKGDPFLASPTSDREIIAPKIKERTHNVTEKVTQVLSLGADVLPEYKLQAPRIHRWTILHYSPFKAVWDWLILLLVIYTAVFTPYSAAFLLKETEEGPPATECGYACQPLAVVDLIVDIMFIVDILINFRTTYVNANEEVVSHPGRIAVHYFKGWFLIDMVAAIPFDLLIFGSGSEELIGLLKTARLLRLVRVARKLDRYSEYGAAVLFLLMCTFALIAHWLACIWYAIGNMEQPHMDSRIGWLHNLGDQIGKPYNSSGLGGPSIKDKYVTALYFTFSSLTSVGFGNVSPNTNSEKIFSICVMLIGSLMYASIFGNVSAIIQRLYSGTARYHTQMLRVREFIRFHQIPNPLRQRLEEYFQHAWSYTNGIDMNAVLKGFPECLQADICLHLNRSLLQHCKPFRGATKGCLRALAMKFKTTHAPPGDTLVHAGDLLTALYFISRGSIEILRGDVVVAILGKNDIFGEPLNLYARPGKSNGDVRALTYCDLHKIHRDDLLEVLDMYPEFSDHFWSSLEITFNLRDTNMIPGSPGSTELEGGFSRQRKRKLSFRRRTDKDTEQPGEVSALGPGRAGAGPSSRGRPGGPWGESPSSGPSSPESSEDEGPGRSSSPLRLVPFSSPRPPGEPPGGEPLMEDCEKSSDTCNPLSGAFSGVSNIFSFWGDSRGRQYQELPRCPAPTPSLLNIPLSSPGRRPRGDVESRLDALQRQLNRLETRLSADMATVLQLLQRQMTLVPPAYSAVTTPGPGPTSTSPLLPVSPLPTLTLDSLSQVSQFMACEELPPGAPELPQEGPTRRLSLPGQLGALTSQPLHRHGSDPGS

Row | IC50 (CYP2C9) | IC50 (CYP2D6) | IC50 (CYP3A4) | percentage of the test compound remained after reacting for 30 minutes (Metabolic stability test) | inhibition at 50 µM (PI-3 kinase γ; PI3Kγ) | inhibition at 10 µM (PI-3 kinase γ; PI3Kγ, compound at 10 μM) | SMILES | inhibition ratio for the maximum tail current (IKr) [1] | inhibition at 10 µM (PI-3 kinase γ; compound at 10 μmol/L)
1 | > 20 µM | > 20 µM | > 20 µM | 98.3% | ≥ 95% |  | CNC(=O)Nc1nc2c(s1)CN(c1cc(Cl)nc(N)n1)CC2 [Compound I-118] | 8.4% | 
2 | > 20 µM | > 20 µM | > 20 µM | 98.6% | ≥ 95% |  | CNC(=O)Nc1cc2n(n1)CCN2c1cc(C(=O)N2CCOCC2)cc(-c2ccc(N)nc2)c1 [Compound I-200] | 7.3% | 
3 | > 20 µM | > 20 µM | > 20 µM | 87.2% | 93% |  | COc1cc(N2CCc3nc(NC(=O)NCC(=O)O)sc3C2)nc(OC)n1 [Compound I-208] | 2.7% | 
4 | > 20 µM | > 20 µM | > 20 µM | 99.7% |  | ≥ 95% | COc1cc(N2CCc3nc(NC(=O)NCc4cc(=O)[nH]o4)sc3C2)nc(OC)n1 [Compound I-279] | 5% | 
5 | > 20 µM | > 20 µM | > 20 µM | 92% |  |  | CN1CCc2cc(N3CCn4nc(NC(=O)c5cccnc5)cc43)ccc2C1=O [Compound I-347] | 6% | 91%

Row | SMILES | IC50 (CYP2C9) | IC50 (CYP2D6) | IC50 (CYP3A4) | percentage of the test compound remained after reacting for 30 minutes (Metabolic stability test) | inhibition at 50 µM (PI-3 kinase γ; PI3Kγ) | inhibition at 10 µM (PI-3 kinase γ; PI3Kγ, compound at 10 μM) | inhibition ratio for the maximum tail current (IKr) [1] | inhibition at 10 µM (PI-3 kinase γ; compound at 10 μmol/L)
6 | CNC(=O)Nc1cc2n(n1)CCN2c1ccc(S(C)(=O)=O)cc1 [Compound I-89] | > 20 µM | > 20 µM | > 20 µM | 93.6% | ≥ 95% |  | < 0.5% | 
7 | CNC(=O)Nc1nc2c(s1)CN(c1ccnc(OC)n1)CC2 [Compound I-142] | > 20 µM | > 20 µM | > 20 µM | 97.5% | ≥ 95% |  |  | 
8 | CN1CCc2cc(N3CCn4nc(NC(=O)c5ccco5)cc43)ccc2C1=O [Compound I-358] | > 20 µM | > 20 µM | > 20 µM | 88.4% |  |  |  | ≥ 95%
